Measurements reported in PubChem BioAssay AID330 (DTP/NCI, 2004).
“And” between values parts separate entries of the source, which are not always exact repeats. Identical values can stand only once. Toxic doses and inconclusive results are not listed.

Test system: P388 leukemia ip, CD2F1 mice, survival T/C
Test: NCI In Vivo Anticancer Drug Screen. Data for tumor model P388 Leukemia (intraperitoneal) in CD2F1 (CDF1) mice
Conditions: endpoint: median survival time, higher = longer survival
Procedure, shortened: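 Mice carrying the transplanted tumor received test compound or vehicle. Survival was recorded in each group, and the value is the treated-group measurement divided by that of the vehicle-treated control group.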

[1] = dose: 50.0 mg/kg/injection, schedule: Q01DX005 (ip), vehicle: saline with Tween-80
[2] = dose: 100.0 mg/kg/injection, schedule: Q01DX005 (ip), vehicle: saline with Tween-80
[3] = dose: 200.0 mg/kg/injection, schedule: Q01DX005 (ip), vehicle: saline with Tween-80
[4] = dose: 25.0 mg/kg/injection, schedule: Q01DX009 (ip), vehicle: Klucel (hydroxypropylcellulose) (HPC)
[5] = dose: 100.0 mg/kg/injection, schedule: Q04DX002 (ip), vehicle: saline with Tween-80
[6] = dose: 200.0 mg/kg/injection, schedule: Q04DX002 (ip), vehicle: saline with Tween-80
[7] = dose: 400.0 mg/kg/injection, schedule: Q04DX002 (ip), vehicle: saline with Tween-80
[8] = dose: 25.0 mg/kg/injection, schedule: Q01DX009 (ip), vehicle: saline with Tween-80

C=C1C(=C)C2OC1c1cc3c(cc12)C(=O)c1ccccc1C3=O
T/C [1]: 90 % of control
T/C [2]: 109 % of control
T/C [3]: 114 % of control

N#CC(Br)C(N)=O (stereo unspecified)
T/C (dose: 1.25 mg/kg/injection, schedule: Q01DX009 (ip), vehicle: saline with Tween-80): 104 % of control
T/C (dose: 2.5 mg/kg/injection, schedule: Q01DX009 (ip), vehicle: saline with Tween-80): 124 % of control
T/C (dose: 5.0 mg/kg/injection, schedule: Q01DX009 (ip), vehicle: saline with Tween-80): 119 % of control

CC1=C(C(N)=O)C(c2ccccc2)NC(=S)N1 (stereo unspecified)
T/C (dose: 3.12 mg/kg/injection, schedule: Q01DX005 (ip), vehicle: Klucel (hydroxypropylcellulose) (HPC)): 101 % of control
T/C (dose: 6.25 mg/kg/injection, schedule: Q01DX005 (ip), vehicle: Klucel (hydroxypropylcellulose) (HPC)): 95 % of control
T/C (dose: 12.5 mg/kg/injection, schedule: Q01DX005 (ip), vehicle: Klucel (hydroxypropylcellulose) (HPC)): 100 % of control
T/C (dose: 25.0 mg/kg/injection, schedule: Q01DX005 (ip), vehicle: Klucel (hydroxypropylcellulose) (HPC)): 100 % of control and 101 % of control (2×)

c1ccc(CNc2cccc(NCc3ccccn3)n2)nc1
T/C (dose: 50.0 mg/kg/injection, schedule: Q01DX005 (ip), vehicle: Klucel (hydroxypropylcellulose) (HPC)): 101 % of control
T/C (dose: 100.0 mg/kg/injection, schedule: Q01DX005 (ip), vehicle: Klucel (hydroxypropylcellulose) (HPC)): 95 % of control
T/C (dose: 200.0 mg/kg/injection, schedule: Q01DX005 (ip), vehicle: Klucel (hydroxypropylcellulose) (HPC)): 108 % of control

COc1ccc(C(N)=O)cc1N=NN(C)C
T/C (dose: 3.12 mg/kg/injection, schedule: Q01DX009 (ip), vehicle: Klucel (hydroxypropylcellulose) (HPC)): 103 % of control
T/C (dose: 3.13 mg/kg/injection, schedule: Q01DX009 (ip), vehicle: Klucel (hydroxypropylcellulose) (HPC)): 103 % of control
T/C (dose: 6.25 mg/kg/injection, schedule: Q01DX009 (ip), vehicle: Klucel (hydroxypropylcellulose) (HPC)): 98 % of control
T/C (dose: 12.5 mg/kg/injection, schedule: Q01DX009 (ip), vehicle: Klucel (hydroxypropylcellulose) (HPC)): 107 % of control and 114 % of control
T/C [4]: 121 % of control and 123 % of control
T/C (dose: 50.0 mg/kg/injection, schedule: Q01DX009 (ip), vehicle: Klucel (hydroxypropylcellulose) (HPC)): 118 % of control and 94 % of control

CCC(c1ccc(OC)cc1)C(CC)c1ccc(O)c(CN(C)C)c1 (stereo unspecified)
T/C (dose: 60.0 mg/kg/injection, schedule: Q01DX005 (ip), vehicle: saline with Tween-80): 94 % of control
T/C (dose: 120.0 mg/kg/injection, schedule: Q01DX005 (ip), vehicle: saline with Tween-80): 92 % of control
T/C (dose: 240.0 mg/kg/injection, schedule: Q01DX005 (ip), vehicle: saline with Tween-80): 92 % of control

Cc1cc(-c2ccccc2)c(C)c(-c2ccccc2)c1-c1ccccc1
T/C [5]: 99 % of control
T/C [6]: 101 % of control
T/C [7]: 96 % of control

COc1cc2c(=O)oc3c(OC)c(O)cc4c(=O)oc(c1OC)c2c34
T/C (dose: 2.0 mg/kg/injection, schedule: Q01DX005 (ip), vehicle: saline with Tween-80): 97 % of control
T/C (dose: 4.0 mg/kg/injection, schedule: Q01DX005 (ip), vehicle: saline with Tween-80): 100 % of control and 96 % of control and 98 % of control
T/C (dose: 8.0 mg/kg/injection, schedule: Q01DX005 (ip), vehicle: saline with Tween-80): 92 % of control and 96 % of control and 98 % of control
T/C (dose: 16.0 mg/kg/injection, schedule: Q01DX005 (ip), vehicle: saline with Tween-80): 87 % of control and 91 % of control
T/C (dose: 32.0 mg/kg/injection, schedule: Q01DX005 (ip), vehicle: saline with Tween-80): 89 % of control

O=C1CN=C(c2ccc[nH]2)c2cc(Cl)ccc2N1
T/C [4]: 120 % of control
T/C [8]: 109 % of control
T/C (dose: 50.0 mg/kg/injection, schedule: Q01DX001 (ip), vehicle: saline): 109 % of control
T/C (dose: 50.0 mg/kg/injection, schedule: Q01DX009 (ip), vehicle: saline with Tween-80): 100 % of control
T/C (dose: 100.0 mg/kg/injection, schedule: Q01DX001 (ip), vehicle: saline): 109 % of control
T/C (dose: 100.0 mg/kg/injection, schedule: Q01DX009 (ip), vehicle: saline with Tween-80): 104 % of control
T/C (dose: 200.0 mg/kg/injection, schedule: Q01DX001 (ip), vehicle: saline): 104 % of control
T/C (dose: 200.0 mg/kg/injection, schedule: Q01DX009 (ip), vehicle: saline with Tween-80): 118 % of control
T/C (dose: 400.0 mg/kg/injection, schedule: Q01DX001 (ip), vehicle: saline): 100 % of control
T/C (dose: 400.0 mg/kg/injection, schedule: Q01DX009 (ip), vehicle: saline with Tween-80): 118 % of control

Cc1cc2nnc(C)n2c(C)n1
T/C (dose: 100.0 mg/kg/injection, schedule: Q04DX003 (ip), vehicle: saline): 95 % of control
T/C (dose: 200.0 mg/kg/injection, schedule: Q04DX003 (ip), vehicle: saline): 96 % of control
T/C (dose: 400.0 mg/kg/injection, schedule: Q04DX003 (ip), vehicle: saline): 93 % of control

CCC(CCC(C)C1CCC2C3CC=C4CC(OP(=[Se])(c5ccccc5)c5ccccc5)CCC4(C)C3CCC12C)C(C)C (stereo unspecified)
T/C (dose: 13.75 mg/kg/injection, schedule: Q01DX001 (ip), vehicle: Klucel (hydroxypropylcellulose) (HPC)): 102 % of control
T/C (dose: 27.5 mg/kg/injection, schedule: Q01DX001 (ip), vehicle: Klucel (hydroxypropylcellulose) (HPC)): 106 % of control
T/C (dose: 55.0 mg/kg/injection, schedule: Q01DX001 (ip), vehicle: Klucel (hydroxypropylcellulose) (HPC)): 104 % of control

O=C1C=C[C@]2(C(=O)O)[C@@H]3C=C[C@@H](CC3)[C@H]12
T/C (dose: 100.0 mg/kg/injection, schedule: Q04DX003 (ip), vehicle: Klucel (hydroxypropylcellulose) (HPC)): 96 % of control
T/C (dose: 200.0 mg/kg/injection, schedule: Q04DX003 (ip), vehicle: Klucel (hydroxypropylcellulose) (HPC)): 100 % of control
T/C (dose: 400.0 mg/kg/injection, schedule: Q04DX003 (ip), vehicle: Klucel (hydroxypropylcellulose) (HPC)): 90 % of control

O=C(CC(O)(C(F)(F)F)C(F)(F)F)c1ccco1
T/C (dose: 33.0 mg/kg/injection, schedule: Q01DX009 (ip), vehicle: saline with Tween-80): 110 % of control

CN(Cc1cnc2nc(N)nc(N)c2n1)c1ccc(C(=O)NC(CCC(=O)OCc2c(Cl)cccc2Cl)C(=O)OCc2c(Cl)cccc2Cl)cc1 (stereo unspecified)
T/C (dose: 3.75 mg/kg/injection, schedule: Q01DX005 (ip), vehicle: saline with Tween-80): 168 % of control
T/C (dose: 7.5 mg/kg/injection, schedule: Q01DX005 (ip), vehicle: saline with Tween-80): 207 % of control and 237 % of control
T/C (dose: 15.0 mg/kg/injection, schedule: Q01DX005 (ip), vehicle: saline with Tween-80): 105 % of control and 92 % of control
T/C (dose: 30.0 mg/kg/injection, schedule: Q01DX005 (ip), vehicle: saline with Tween-80): 87 % of control

COc1cc(N=Nc2cccc(C(=O)O)c2)ccc1N(CCCl)CCCl
T/C (dose: 6.25 mg/kg/injection, schedule: Q01DX009 (ip), vehicle: saline with Tween-80): 106 % of control
T/C (dose: 12.5 mg/kg/injection, schedule: Q01DX009 (ip), vehicle: saline with Tween-80): 121 % of control
T/C [8]: 152 % of control

CC(C)OC(=O)NN(C(=O)OC(C)C)N(C)C
T/C (dose: 60.0 mg/kg/injection, schedule: Q01DX005 (ip), vehicle: Klucel (hydroxypropylcellulose) (HPC)): 100 % of control
T/C (dose: 120.0 mg/kg/injection, schedule: Q01DX005 (ip), vehicle: Klucel (hydroxypropylcellulose) (HPC)): 100 % of control
T/C (dose: 240.0 mg/kg/injection, schedule: Q01DX005 (ip), vehicle: Klucel (hydroxypropylcellulose) (HPC)): 103 % of control

COC(=O)C12CC(CCC1C13CCC4(OCCO4)C(C)(C)C1C(=O)OC3)C(C)C2O (stereo unspecified)
T/C [5]: 97 % of control
T/C [6]: 94 % of control
T/C [7]: 100 % of control

NCC(=O)OCN1C(=O)C2C3C=CC(C2C1=O)C1C2C(=O)N(COC(=O)CN)C(=O)C2C31 (stereo unspecified)
T/C (dose: 6.25 mg/kg/injection, schedule: Q01DX009 (ip), vehicle: water): 109 % of control
T/C (dose: 12.5 mg/kg/injection, schedule: Q01DX009 (ip), vehicle: water): 104 % of control
T/C (dose: 25.0 mg/kg/injection, schedule: Q01DX009 (ip), vehicle: water): 104 % of control and 109 % of control
T/C (dose: 25.75 mg/kg/injection, schedule: Q01DX009 (ip), vehicle: water): 112 % of control
T/C (dose: 50.0 mg/kg/injection, schedule: Q01DX009 (ip), vehicle: water): 99 % of control and 115 % of control and 116 % of control
T/C (dose: 51.5 mg/kg/injection, schedule: Q01DX009 (ip), vehicle: water): 121 % of control
T/C (dose: 100.0 mg/kg/injection, schedule: Q01DX009 (ip), vehicle: water): 118 % of control
T/C (dose: 103.0 mg/kg/injection, schedule: Q01DX009 (ip), vehicle: water): 203 % of control
T/C (dose: 200.0 mg/kg/injection, schedule: Q01DX009 (ip), vehicle: water): 91 % of control
T/C (dose: 400.0 mg/kg/injection, schedule: Q01DX009 (ip), vehicle: water): 173 % of control

O=C1c2sccc2C2C1N2C(=O)C(F)(F)F (stereo unspecified)
T/C [1]: 95 % of control
T/C [2]: 98 % of control
T/C [3]: 104 % of control
